{"source": "patent US20190233884A1", "about": "(University of Southern California, priority 2016, published 2019)", "test_system": "patients with refractory metastatic colorectal cancer (mCRC)", "assay": "PFS, OS and disease control in the testing (validation) cohort of refractory mCRC patients receiving TAS-102 (n=129, Italy), by baseline characteristics, SNP genotype and toxicity", "type": "in vivo, human", "details": "for OS HR (95% CI)‡ / PFS HR (95% CI) ‡: multivariable; for Disease Control Rate: PD / Disease Control Rate: SD: patients, n (%)", "description": "All patients underwent the treatment in salvage-line setting. […]\n(§1) Genomic DNA was extracted from peripheral whole blood in patients of all cohorts using the QIAmp Kit (Qiagen, Valencia, Calif., USA) according to the manufacturer's protocol (www.qiagen.com). The candidate SNPs were genotyped using PCR-based direct DNA sequence analysis by ABI 3100A Capillary Genetic Analyzer and Sequencing Scanner v1.0 (Applied Biosystems). Amplification of extracted DNA was carried out using both forward and reverse primers for each gene polymorphism as shown in Table 1. […] The investigators analyzing SNPs were blinded to the clinical data of the study patients.\nThe primary endpoint in this study was progression-free survival (PFS), and the secondary endpoints were overall survival (OS) and disease control rate (DCR). PFS was calculated from the date of starting treatment to the first observation of disease progression or death from any cause. If a patient had no disease progression or death, PFS was censored at the date of last follow up. OS was calculated from the date of starting treatment until the date of death from any cause or the date of the last follow-up, at which point OS was censored. The disease control rate (DCR) was defined as the proportion of patients who achieved a stable disease (SD) or […] according to RECISTv1.1. Chi-square test was used to examine the difference in baseline patient characteristics among the three cohorts. Allelic distribution of all SNPs by ethnicity for deviation from Hardy-Weinberg equilibrium and the allelic frequencies of SNPs were tested using the Chi-square tests with one degree of freedom. The associations between candidate SNPs and disease control, and toxicities were examined using contingency tables and Fisher's exact test. The associations of SNPs with PFS and OS were analysed using Kaplan-Meier curves and the log-rank test. Because the true mode of inheritance of candidate SNPs was not established yet, a codominant or dominant genetic model if appropriate was considered.\nAll patients underwent the treatment in salvage-line setting. […] In all patients, adverse events were graded according to the Common Terminology Criteria for Adverse Events, version 4.0. […]\nas §1, with “tested” for “genotyped”, “Biosystems).” for “Biosystems). Amplification of extracted DNA was carried out using both forward and reverse primers for each gene polymorphism as shown in Table 1.”, “data.” for “data of the study patients.”\nThe primary endpoint in this study was progression-free survival (PFS), and the secondary endpoints were overall survival (OS) and disease control rate (DCR).", "key": {"[1]": {"details": "ATR rs2227928 A/A vs G/G, univariate"}, "[2]": {"details": "ATR rs2227928 Any A vs G/G, univariate"}, "[3]": {"details": "ATR rs2227928 G/A vs G/G, univariate"}, "[4]": {"details": "Pin1 rs2233678 G/C and C/C grouped together"}, "[5]": {"details": "Pin1 rs2233678 G/C and C/C grouped vs G/G"}, "[6]": {"details": "Pin1 rs2233678 G/C and C/C grouped vs G/G, univariate"}, "[7]": {"details": "Validation cohort, Neutropenia grade <3"}, "[8]": {"details": "Validation cohort, Neutropenia grade ≥3 vs <3, univariate"}, "[9]": {"details": "testing cohort, MATE1_OCT019 Good"}, "[10]": {"details": "testing cohort, MATE1_OCT019 Good vs Poor"}, "[11]": {"details": "testing cohort, MATE1_OCT019 Poor"}}, "data": [{"substance": "Trifluridine/tipiracil [TAS-102]", "values": [{"measurement": "PFS median, months (95% CI)", "setting": "ATR rs2227928 A/A", "result": 2.4, "unit": "months"}, {"measurement": "OS HR (95% CI)‡", "setting": "ATR rs2227928 A/A vs G/G", "result": 1.32}, {"measurement": "PFS HR (95% CI) ‡", "setting": "ATR rs2227928 A/A vs G/G", "result": 1.03}, {"measurement": "OS HR (95% CI)†", "setting": "[1]", "result": 0.94}, {"measurement": "PFS HR (95% CI) †", "setting": "[1]", "result": 0.79}, {"measurement": "Disease Control Rate: PD", "setting": "ATR rs2227928 A/A", "result": "14 (56%)"}, {"measurement": "Disease Control Rate: SD", "setting": "ATR rs2227928 A/A", "result": "11 (44%)"}, {"measurement": "OS median, months (95% CI)", "setting": "ATR rs2227928 Any A", "result": 5.5, "unit": "months"}, {"measurement": "PFS median, months (95% CI)", "setting": "ATR rs2227928 Any A", "result": 2.0, "unit": "months"}, {"measurement": "OS HR (95% CI)‡", "setting": "ATR rs2227928 Any A vs G/G", "result": 1.35}, {"measurement": "PFS HR (95% CI) ‡", "setting": "ATR rs2227928 Any A vs G/G", "result": 1.33}, {"measurement": "OS HR (95% CI)†", "setting": "[2]", "result": 1.12}, {"measurement": "PFS HR (95% CI) †", "setting": "[2]", "result": 1.11}, {"measurement": "Disease Control Rate: PD", "setting": "ATR rs2227928 Any A", "result": "64 (72%)"}, {"measurement": "Disease Control Rate: SD", "setting": "ATR rs2227928 Any A", "result": "25 (28%)"}, {"measurement": "OS median, months (95% CI)", "setting": "ATR rs2227928 G/A", "result": 5.4, "unit": "months"}, {"measurement": "PFS median, months (95% CI)", "setting": "ATR rs2227928 G/A", "result": 2.0, "unit": "months"}, {"measurement": "OS HR (95% CI)‡", "setting": "ATR rs2227928 G/A vs G/G", "result": 1.36}, {"measurement": "PFS HR (95% CI) ‡", "setting": "ATR rs2227928 G/A vs G/G", "result": 1.45}, {"measurement": "OS HR (95% CI)†", "setting": "[3]", "result": 1.20}, {"measurement": "PFS HR (95% CI) †", "setting": "[3]", "result": 1.26}, {"measurement": "Disease Control Rate: PD", "setting": "ATR rs2227928 G/A", "result": "50 (78%)"}, {"measurement": "Disease Control Rate: SD", "setting": "ATR rs2227928 G/A", "result": "14 (22%)"}, {"measurement": "PFS median, months (95% CI)", "setting": "ATR rs2227928 G/G", "result": 2.1, "unit": "months"}, {"measurement": "Disease Control Rate: PD", "setting": "ATR rs2227928 G/G", "result": "27 (69%)"}, {"measurement": "Disease Control Rate: SD", "setting": "ATR rs2227928 G/G", "result": "12 (31%)"}, {"measurement": "OS median, months (95% CI)", "setting": "[4]", "result": 5.4, "unit": "months"}, {"measurement": "PFS median, months (95% CI)", "setting": "[4]", "result": 2.0, "unit": "months"}, {"measurement": "Disease Control Rate: PD", "setting": "[4]", "result": "26 (70%)"}, {"measurement": "Disease Control Rate: SD", "setting": "[4]", "result": "11 (30%)"}, {"measurement": "OS HR (95% CI)‡", "setting": "[5]", "result": 0.97}, {"measurement": "PFS HR (95% CI) ‡", "setting": "[5]", "result": 1.18}, {"measurement": "OS HR (95% CI)†", "setting": "[6]", "result": 0.91}, {"measurement": "PFS HR (95% CI) †", "setting": "[6]", "result": 1.00}, {"measurement": "OS median, months (95% CI)", "setting": "Pin1 rs2233678 G/G", "result": 5.8, "unit": "months"}, {"measurement": "PFS median, months (95% CI)", "setting": "Pin1 rs2233678 G/G", "result": 2.0, "unit": "months"}, {"measurement": "Disease Control Rate: PD", "setting": "Pin1 rs2233678 G/G", "result": "65 (71%)"}, {"measurement": "Disease Control Rate: SD", "setting": "Pin1 rs2233678 G/G", "result": "26 (29%)"}, {"measurement": "OS median, months (95% CI)", "setting": "[7]", "result": "3.7 (3.3, 5.1) months"}, {"measurement": "PFS median, months (95% CI)", "setting": "[7]", "result": "1.9 (1.7, 1.9) months"}, {"measurement": "PFS median, months (95% CI)", "setting": "Validation cohort, Neutropenia grade ≥3", "result": "2.3 (2.0, 3.7) months"}, {"measurement": "OS HR (95% CI)", "setting": "[8]", "result": "0.21 (0.10, 0.44)"}, {"measurement": "PFS HR (95% CI)", "setting": "[8]", "result": "0.50 (0.32, 0.77)"}, {"measurement": "Disease Control Rate PD", "setting": "[9]", "result": "63 (70%)"}, {"measurement": "Disease Control Rate SD", "setting": "[9]", "result": "27 (30%)"}, {"measurement": "Overall Survival Median, months (95% CI)", "setting": "[9]", "result": "5.4 (4.1, 9.0+) months"}, {"measurement": "Progression-free Survival Median, months (95% CI)", "setting": "[9]", "result": "2.0 (1.9, 2.3) months"}, {"measurement": "Overall Survival HR (95% CI) multivariate", "setting": "[10]", "result": "1.12 (0.59, 2.10)"}, {"measurement": "Overall Survival HR (95% CI) univariate", "setting": "[10]", "result": "1.18 (0.64, 2.17)"}, {"measurement": "Progression-free Survival HR (95% CI) multivariate", "setting": "[10]", "result": "0.91 (0.59, 1.42)"}, {"measurement": "Progression-free Survival HR (95% CI) univariate", "setting": "[10]", "result": "0.94 (0.62, 1.43)"}, {"measurement": "Disease Control Rate PD", "setting": "[11]", "result": "28 (74%)"}, {"measurement": "Disease Control Rate SD", "setting": "[11]", "result": "10 (26%)"}]}]}
